Measurements as given in publication PMC11440035, “Interaction of myricetin, ampelopsin (dihydromyricetin), and their sulfate metabolites with serum albumin, cytochrome P450 (CYP2C9, 2C19, and 3A4) enzymes, and organic anion‐transporting polypeptides (OATP1B1 and OATP2B1)” (Pharmacology Research & Perspectives, 2024).
Values joined by “and” are separate entries in the source; they are usually repeats but may differ in a detail not shown here. Identical values can stand only once.

Assays:
OATP1B1 [1] = molecular target: T1, OATP1B1 (Homo sapiens, UniProt Q9Y6L6); assay: Inhibition of OATP1B1-mediated disulfopyrene uptake in A431 cells; assay type: cell-based; details: for decrease in the transport activity of OATP1B1 / inhibition of OATP1B1 in words: 25 μM flavonoid; for IC50: disulfopyrene 10 μM, 10 min, HBSS pH 7.4, A431-OATP1B1 cells
T1 construct: expressed in transfected cells; host or cells: A431
T1 sequence (Q9Y6L6 1-691): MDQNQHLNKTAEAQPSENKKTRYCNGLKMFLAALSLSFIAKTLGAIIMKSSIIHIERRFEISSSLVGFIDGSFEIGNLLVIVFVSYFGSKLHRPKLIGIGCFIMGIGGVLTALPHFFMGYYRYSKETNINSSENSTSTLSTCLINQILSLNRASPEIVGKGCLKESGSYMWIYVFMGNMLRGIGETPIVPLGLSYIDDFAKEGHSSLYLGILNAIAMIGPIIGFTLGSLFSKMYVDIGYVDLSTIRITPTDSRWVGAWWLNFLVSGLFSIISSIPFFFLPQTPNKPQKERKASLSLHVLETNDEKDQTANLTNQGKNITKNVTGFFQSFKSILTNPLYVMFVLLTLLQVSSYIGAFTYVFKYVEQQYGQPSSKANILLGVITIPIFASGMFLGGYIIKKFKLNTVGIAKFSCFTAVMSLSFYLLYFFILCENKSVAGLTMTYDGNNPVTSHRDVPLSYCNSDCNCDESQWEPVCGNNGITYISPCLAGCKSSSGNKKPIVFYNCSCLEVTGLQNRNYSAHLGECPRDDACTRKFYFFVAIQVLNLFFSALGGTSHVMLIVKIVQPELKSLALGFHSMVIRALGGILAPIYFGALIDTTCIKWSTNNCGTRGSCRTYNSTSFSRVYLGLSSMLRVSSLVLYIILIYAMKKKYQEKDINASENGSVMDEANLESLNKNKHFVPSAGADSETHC
Method: Human A431 cells overexpressing OATPs (OATP1B1 or OATP2B1) and their mock‐transfected controls were established earlier.[42], [43] The cells were maintained at 37°C with 5% CO2 in Dulbecco's Modified Eagle Medium (DMEM; Thermo Fischer Scientific, Waltham, MA, USA) supplemented with fetal bovine serum (10%), L‐glutamine (2 mM), penicillin (100 units/mL) and streptomycin (100 μg/mL).
The inhibitory impacts of MYR, AMP, and their sulfate metabolites on OATP1B1 and OATP2B1 were examined using the fluorescent dye substrates disulfopyrene (6,8‐dihydroxy‐1,3‐disulfopyrene) and pyranine, respectively.[42], [43] The day before the transport measurements, A431 cells overexpressing OATP1B1 or OATP2B1 (and their mock‐transfected controls) were seeded onto 96‐well plates at a density of 80 000 cells/well in DMEM (200 μL). Next day, the medium was removed, the cells were washed three times with PBS (pH 7.4, 200 μL) at room temperature, then the cells were pre‐incubated with 50 μL of Hank's Balanced Salt Solution (HBSS, pH 7.4; OATP1B1) or uptake buffer (pH 5.5; OATP2B1) for 5 min at 37°C with or without the flavonoids.[43] The transport reaction was started by adding 50 μL of disulfopyrene‐containing (final concentration: 10 μM) HBSS (OATP1B1 assay), or pyranine‐containing (final concentration: 20 μM) uptake buffer (OATP2B1 assay). After 10 min (OATP1B1) or 15 min (OATP2B1), the transport was stopped by removing the supernatant and washing the cells three times with ice‐cold PBS (200 μL). Then the fluorescence was measured in 200 μL of PBS using an Enspire plate reader (PerkinElmer, Waltham, MA, US) at excitation and emission wavelengths of 460/510 nm. OATP‐dependent transport was determined by subtracting the fluorescence detected in mock control cells from that of OATP‐expressing cells. Transport activity was measured based on the fluorescence signal in the absence of flavonoids (100%). IC50 values were calculated by sigmoidal fitting (Hill1), using the Origin software (version 2018, OriginLab Corporation, Northampton, MA, USA).

[2] = tested on: T2, human serum albumin (HSA); assay: Ultrafiltration: displacement of the Site I marker warfarin from HSA; assay type: binding; details: flavonoid 20 μM, warfarin 1 μM, HSA 5 μM, PBS pH 7.4
T2 construct: purchased Merck (Darmstadt, Germany) A1653
Method: The impacts of MYR, M3′S, AMP, and A4′S on the albumin‐bound fraction of the Site I marker warfarin were examined with the previously reported ultrafiltration method.[17], [18] Briefly, samples contained warfarin (1 μM) and HSA (5 μM) without or with flavonoids (20 μM) in PBS (pH 7.4). After two washing steps of the filters (Amicon Ultra‐0.5 Centrifugal Filter Units, 30 kDa molecular weight cut‐off; Merck, Darmstadt, Germany) with water then PBS (both 500 μL), samples (500 μL) were centrifuged for 10 min (7500 g, 25°C, fixed angle rotor).
Warfarin was quantified using an HPLC system (Jasco, Tokyo, Japan) with an autosampler (AS‐4050), a binary pump (PU‐4180), a fluorescence detector (Jasco FP‐920), and the ChromNAV2 software. The concentrations of warfarin in the filtrate were directly determined by applying the previously described method.[17], [18] […] The fluorescence detection of warfarin was carried out at 310 and 390 nm excitation and emission wavelengths, respectively.

OATP1B1 [3] = molecular target: T1, OATP1B1; assay: Uptake of flavonoids by A431-OATP1B1 versus mock cells (APB fluorescence); assay type: cell-based; details: for cellular flavonoid level in OATP1B1‐overexpressing versus mock control cells: 10 μM flavonoid, 15 min, 37°C; for substrate of OATP1B1: conclusion from uptake studies
Method: Direct uptake of AMP, MYR, and their sulfate metabolites were examined in A431 cells overexpressing OATP1B1 or OATP2B1, and in their mock‐transfected controls using APB as a fluorescence enhancer. One day before the uptake measurements, the cells were seeded onto 96‐well plates at a density of 80 000 cells/well in DMEM (200 μL). The following day, the cell culture medium was removed, and the cells were rinsed thrice with PBS (200 μL). Thereafter, the cells were preincubated with HBSS (50 μL) for 5 min at 37°C. The uptake reaction was initiated by the addition of a further 50 μL of HBSS containing AMP, MYR, or their sulfate conjugates (10 μM). After incubating for 15 min at 37°C, the reaction was stopped by removing the supernatant and rinsing the cells three times with ice‐cold PBS. Then PBS buffer (200 μL) containing APB (250 μg/mL) and BSA (1 mg/mL) was added to each well.[35] The fluorescence was read using an Enspire plate reader using the wavelengths listed in Section 2.7.
The concentration‐dependent uptake of M3′S was also tested under the same conditions, except the cells were incubated with 0–10 μM M3′S for 2 min (OATP1B1) or 5 min (OATP2B1).
To test the effect of BSP (a known inhibitor of OATPs[44]) on the cellular uptake of M3′S, cells were preincubated with HBSS buffer (50 μL) with or without BSP (20 μM) for 5 min at 37°C. Thereafter, we added 50 μL of HBSS containing M3′S (final concentration: 2 μM), and cells were further incubated at 37°C for 2 min (OATP1B1) or 5 min (OATP2B1). The reaction was stopped by removing the supernatant. After washing the cells with ice‐cold PBS, a PBS buffer with APB/BSA was added. Fluorescence was determined by applying an Enspire plate reader at excitation/emission wavelengths of 480/540 nm.

Row | decrease in the transport activity of OATP1B1 (OATP1B1 [1]) | effect on the filtered fraction of warfarin [2] | substrate of OATP1B1 (OATP1B1 [3]) | inhibitory strength on OATP1B1 relative to MYR (OATP1B1 [1]; ratio of IC50 values) | concentration‐dependent uptake in OATP1B1‐overexpressing cells (OATP1B1 [3]; 0–10 μM, 2 min) | Structure (SMILES) | cellular flavonoid level in OATP1B1‐overexpressing versus mock control cells (OATP1B1 [3]) | inhibition of OATP1B1 in words (OATP1B1 [1]) | IC50 (OATP1B1 [1])
1 | ~70% | not affected | not substrates | – | – | O=C1c2c(O)cc(O)cc2OC(c2cc(O)c(OS(=O)(=O)O)c(O)c2)C1O (centres unmarked) [A4′S, ampelopsin‐4′‐O‐sulfate] | did not show statistically significant differences | – | –
2 | – | moderate increases | substrate | four‐fold stronger | saturable uptake | O=c1c(O)c(-c2cc(O)c(O)c(OS(=O)(=O)O)c2)oc2cc(O)cc(O)c12 [M3′S, myricetin‐3′‐O‐sulfate] | more than two‐fold | close to complete inhibition | 1700 nM and 1660 nM
3 | approximately 40% | not affected | not substrates | – | – | O=C1c2c(O)cc(O)cc2O[C@H](c2cc(O)c(O)c(O)c2)[C@H]1O [AMP, ampelopsin] | did not show statistically significant differences | – | –

Row | Structure (SMILES) | decrease in the transport activity of OATP1B1 (OATP1B1 [1]) | effect on the filtered fraction of warfarin [2] | substrate of OATP1B1 (OATP1B1 [3]) | inhibitory strength on OATP1B1 relative to MYR (OATP1B1 [1]; ratio of IC50 values) | concentration‐dependent uptake in OATP1B1‐overexpressing cells (OATP1B1 [3]; 0–10 μM, 2 min) | cellular flavonoid level in OATP1B1‐overexpressing versus mock control cells (OATP1B1 [3]) | inhibition of OATP1B1 in words (OATP1B1 [1]) | IC50 (OATP1B1 [1])
4 | O=c1c(O)c(-c2cc(O)c(O)c(O)c2)oc2cc(O)cc(O)c12 [MYR, myricetin] | – | moderate increases | not substrates | – | – | did not show statistically significant differences | close to complete inhibition | 6400 nM
